Data reported in ChEMBL document CHEMBL5226281, “Synergistic effects of curcumin and its analogs with other bioactive compounds: A comprehensive review” (Eur J Med Chem, 2021).

Assays:
HSC-2 = assay: Synergistic cytotoxicity against human HSC-2 cells; assay type: functional, cell-based
Plasmodium falciparum = assay: Antimalarial activity against Plasmodium falciparum infected in mouse assessed as survival at 0.5 mg/kg, po measured after 40 days relative to control; assay type: functional; details: time 40 day
[1] = Induction of apoptosis in rat AY-27 cells at 10 uM by Annexin V-PE and 7AAD staining based flow cytometry; assay type: functional
Y79 = assay: Antiproliferative activity against human Y79 cells assessed as inhibition of cell growth incubated for 48 hrs by MTT assay; assay type: functional, cell-based; details: Y79, 48 h
[2] = biological target: Mitogen-activated protein kinase 8 (Homo sapiens) (UniProt P45983); assay: Activation of JNK in human CMT12 cells; assay type: cell-based
Sequence of Mitogen-activated protein kinase 8 (Homo sapiens) (P45983 whole entry): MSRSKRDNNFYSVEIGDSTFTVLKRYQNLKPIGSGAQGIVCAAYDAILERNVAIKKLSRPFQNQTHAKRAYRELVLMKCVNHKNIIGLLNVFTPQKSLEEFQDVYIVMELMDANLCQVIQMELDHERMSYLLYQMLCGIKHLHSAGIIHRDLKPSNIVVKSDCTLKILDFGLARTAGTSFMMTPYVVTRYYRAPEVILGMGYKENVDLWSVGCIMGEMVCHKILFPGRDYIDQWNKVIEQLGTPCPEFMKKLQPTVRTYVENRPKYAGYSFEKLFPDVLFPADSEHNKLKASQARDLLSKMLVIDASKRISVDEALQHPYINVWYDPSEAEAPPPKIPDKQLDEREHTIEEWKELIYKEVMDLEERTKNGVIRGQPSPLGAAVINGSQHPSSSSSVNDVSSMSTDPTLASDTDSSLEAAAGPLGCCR

MCF7 = assay: Synergistic antiproliferative activity against human MCF7 cells assessed as inhibition of cell growth; assay type: functional; parameters: scale not given: the % may be the effect or the level left
[3] = Antiproliferative activity against human WERI-Rb-1 cells assessed as inhibition of cell growth incubated for 48 hrs by MTT assay; assay type: functional, cell-based; details: WERI-Rb-1, 48 h
DLD-1 = assay: Synergistic antiproliferative activity against human DLD-1 cells assessed as inhibition of cell growth; assay type: functional, cell-based
HCT-116 = assay: Synergistic antiproliferative activity against human HCT-116 cells assessed as inhibition of cell growth; assay type: functional, cell-based
[4] = Antiproliferative activity against rat AY-27 cells assessed as inhibition of cell growth incubated for 3 hrs by MTT assay; assay type: functional; parameters: scale not given: the % may be the effect or the level left

## Oc1ccc(/C=C/c2cc(O)cc(O)c2)cc1 [RESVERATROL]
HSC-2
  IC50: 3.1 µM

## C[C@@H]1CC[C@H]2[C@@H](C)C(=O)O[C@@H]3O[C@@]4(C)CC[C@@H]1[C@]32OO4 [ARTEMISININ]
Plasmodium falciparum
  Activity: 100%

## COc1cc(/C=C/C(=O)CC(=O)/C=C/c2ccc(O)c(OC)c2)ccc1O [CURCUMIN]
[1]
  Activity: 36%
HSC-2
  IC50: 3.1 µM
Y79
  IC50: 30 µM
[2]
  Activity: 30%
MCF7
  Activity: 65.92%
[3]
  IC50: 25 µM
DLD-1
  IC50: 10 µM
HCT-116
  IC50: 10 µM
[4]
  Activity: 85%
